Values joined by “and” are separate entries in the source; they are usually repeats but may differ in a detail not shown here. Equal values may be shown once. “Also recorded” adds a separate entry of the source.
Tests used:
[1] = test system: ASIC receptor; conditions: cited from earlier work
[2] = target: T1, ASIC3 (Homo sapiens, UniProt Q9UHC3); conditions: pH 7.0; cited from earlier work
T1 sequence (Q9UHC3 1-531): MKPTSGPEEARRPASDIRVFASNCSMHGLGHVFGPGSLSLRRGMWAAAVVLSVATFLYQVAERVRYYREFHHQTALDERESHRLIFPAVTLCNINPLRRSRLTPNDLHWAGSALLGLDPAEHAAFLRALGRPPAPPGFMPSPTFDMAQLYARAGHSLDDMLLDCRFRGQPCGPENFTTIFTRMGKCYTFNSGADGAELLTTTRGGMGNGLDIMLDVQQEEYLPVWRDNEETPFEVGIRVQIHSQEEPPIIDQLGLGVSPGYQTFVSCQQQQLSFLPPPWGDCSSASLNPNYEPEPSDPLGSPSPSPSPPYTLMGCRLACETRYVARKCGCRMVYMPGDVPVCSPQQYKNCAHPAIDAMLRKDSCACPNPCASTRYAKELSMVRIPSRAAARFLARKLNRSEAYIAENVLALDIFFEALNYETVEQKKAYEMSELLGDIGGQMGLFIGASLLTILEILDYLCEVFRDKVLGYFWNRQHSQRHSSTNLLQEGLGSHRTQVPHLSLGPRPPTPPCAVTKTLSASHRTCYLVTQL

[3] = target: TRPV1 receptors (Mus musculus, UniProt Q704Y3); conditions: cited from earlier work
Sequence of TRPV1 receptors (Q704Y3 whole entry): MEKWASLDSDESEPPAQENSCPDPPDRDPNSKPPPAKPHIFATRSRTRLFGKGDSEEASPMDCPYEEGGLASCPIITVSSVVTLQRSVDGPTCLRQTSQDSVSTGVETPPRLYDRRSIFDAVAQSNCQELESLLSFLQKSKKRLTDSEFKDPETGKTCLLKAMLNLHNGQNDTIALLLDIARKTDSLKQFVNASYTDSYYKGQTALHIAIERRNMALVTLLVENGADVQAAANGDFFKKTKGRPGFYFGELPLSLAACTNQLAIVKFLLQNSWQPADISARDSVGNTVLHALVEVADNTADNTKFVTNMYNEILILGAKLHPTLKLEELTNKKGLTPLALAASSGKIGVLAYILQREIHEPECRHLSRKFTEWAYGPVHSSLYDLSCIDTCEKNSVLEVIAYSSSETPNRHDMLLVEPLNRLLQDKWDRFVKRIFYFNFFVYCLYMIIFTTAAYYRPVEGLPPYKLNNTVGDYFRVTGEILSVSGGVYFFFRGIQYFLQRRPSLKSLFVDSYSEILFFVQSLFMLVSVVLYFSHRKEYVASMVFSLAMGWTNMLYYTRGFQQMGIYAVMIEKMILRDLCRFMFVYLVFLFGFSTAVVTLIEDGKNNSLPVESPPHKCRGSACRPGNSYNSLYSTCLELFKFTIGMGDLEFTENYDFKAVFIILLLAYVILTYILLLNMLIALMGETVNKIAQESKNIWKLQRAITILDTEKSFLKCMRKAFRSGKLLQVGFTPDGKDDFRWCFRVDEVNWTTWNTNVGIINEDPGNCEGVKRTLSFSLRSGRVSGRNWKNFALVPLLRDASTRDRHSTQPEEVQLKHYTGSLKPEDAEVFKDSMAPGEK

[4] = target: T2, P2X3 receptors (Homo sapiens, UniProt P56373); conditions: cited from earlier work
T2 sequence (P56373 1-397): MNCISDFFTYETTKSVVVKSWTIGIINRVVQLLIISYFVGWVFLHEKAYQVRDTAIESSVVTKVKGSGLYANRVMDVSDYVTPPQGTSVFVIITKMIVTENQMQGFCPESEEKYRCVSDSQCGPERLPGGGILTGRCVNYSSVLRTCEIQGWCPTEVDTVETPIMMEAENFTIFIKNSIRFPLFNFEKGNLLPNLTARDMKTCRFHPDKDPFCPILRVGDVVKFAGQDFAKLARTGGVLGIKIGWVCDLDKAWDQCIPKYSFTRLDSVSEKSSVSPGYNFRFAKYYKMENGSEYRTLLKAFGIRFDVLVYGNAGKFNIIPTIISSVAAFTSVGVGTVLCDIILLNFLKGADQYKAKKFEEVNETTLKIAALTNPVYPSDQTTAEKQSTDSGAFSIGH

[5] = test system: DRG neurons; test: Calcium imaging of cultured DRG neurons: antagonist effects on responses to capsaicin, ATP or KCl (selectivity control); type: cell-based, mouse
Excerpt: (§1) Harvesting/culturing cells/loading cells: Thirty-nine three week old (4 wells of DRG neurons plated from each mouse), C57Bl/6 mice were anesthetized with isoflurane, and euthanized by cervical dislocation. Dorsal root ganglia (DRG) from lumbar regions were removed into HBSS, treated with trypsin, washed with MEM (Invitrogen 51200-038) containing 10% FBS (Hyclone), 2.4% glucose, 1% glutamax (Invitrogen 35050-061) and 1% penicillin/streptomycin (Atlanta Biological B2110). DRG were triturated, pre-plated and incubated at 37° C. for one hour to reduce non-neuronal cells. Neurons were gently swirled and centrifuged (110×g, 5 min). Cells were removed, re-suspended and 30 μL plated onto the 4 center wells of 24-well plates coated with poly-L-lysine and laminin. A 0.5 mm thick silicone ring with a 4 mm diameter opening sealed to the surface of each well reduced the plating area in each well. Following 1 hour, wells were filled with 37° C. culture medium with 10 ng/mL GDNF (Glial Derived Neurotrophic Factor) (Preprotech 450-10). Sixteen to 23 hours after plating, cultures were loaded with Fura-2 AM (Molecular Probes F-1221) fluorescent dye for 40-60 minutes, then washed with pH 7.4 oxygenated observation medium containing no additional ATP (145 mM NaCl, 5 mM KCl, 2 mM CaCl2, 1 mM MgCl2, 1 mM Citrate, 10 mM glucose, 10 mM MES, 10 mM HEPES). The final well volume was 500 μL.
(§2) JYL-1422, LJO-328, A-317567, and a selected stereo isomer of A-317567 were each dissolved in 5% DMSO/95% water and a few μL of 1M HCl to a concentration of 10 mM, then quick frozen and stored at −20° C. Aliquots of antagonists were thawed and diluted to the appropriate concentrations just prior to use in the experiments. The strong buffers maintained the pH of these antagonists when mixed with metabolites.
(§3) Imaging procedure: All experiments were performed at room temperature (20-25° C.) to allow correspondence with most previous experiments using calcium imaging and patch clamp of DRG neurons. Cells were imaged using the Meta Imaging Series Metafluor program (Universal Imaging Corp). All cells identifiable as neurons based on their round shape, clear, single nucleus, were selected from a phase image of the field. At the end of each experiment, 200 nM capsaicin was applied, followed by a wash, and then applied 50 mM KCl. Capsaicin activation indicated the presence of TRPV1 receptors on neurons, and KCl ensured that recorded objects were active neurons, and established the maximal calcium response in each neuron. For some neurons the administration of capsaicin abolished the potential for responding to KCl, thus either a response to capsaicin or to KCl indicated viability of neurons, and only viable neurons were included in analyses.
For each field an average of 151+10 cells were tracked real-time. […]

[6] = target: T3, mouse P2X4 receptors (Mus musculus, UniProt Q9JJX6); conditions: cited from earlier work
T3 sequence (Q9JJX6 1-388): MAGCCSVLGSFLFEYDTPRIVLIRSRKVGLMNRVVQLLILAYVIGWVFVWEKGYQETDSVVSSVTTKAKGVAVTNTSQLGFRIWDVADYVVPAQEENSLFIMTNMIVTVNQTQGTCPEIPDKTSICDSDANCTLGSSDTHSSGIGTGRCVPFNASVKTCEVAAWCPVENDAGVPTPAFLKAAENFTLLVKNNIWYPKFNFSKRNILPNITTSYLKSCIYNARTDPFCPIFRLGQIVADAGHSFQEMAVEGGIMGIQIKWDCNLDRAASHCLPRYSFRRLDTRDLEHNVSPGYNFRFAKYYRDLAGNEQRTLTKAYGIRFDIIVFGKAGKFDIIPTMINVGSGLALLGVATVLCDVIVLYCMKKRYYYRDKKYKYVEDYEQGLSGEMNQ

[7] = test system: DRG neurons; test: Calcium imaging of cultured DRG neurons: antagonist effects on responses to increasing metabolites (protons, lactate, ATP); type: cell-based, mouse
Excerpt: as §1
(§4) Combinations of metabolites applied to mimic naturally occurring conditions: When applied in an escalating series to mimic increases in metabolites that occur with muscle exercise and ischemic muscle exercise, the metabolite values shown in Table 1 were used. The values associated with pH 7.6 are at or below those normally found at rest in the mouse. The values at 7.4 approximate those found at rest. Generally, the low metabolite values associated with pH higher than 7.0 are likely to be non-noxious, while higher metabolite values at pH 7.0 and lower may be associated with pain. These values should bracket the physiological range of metabolites found in skeletal muscle with the last two values (those associated with 6.4 and 6.2) being higher than the physiological range (Bangsbo et al., 1993; Bangsbo et al., 2001; Li et al., 2003; Li et al., 2005; Reeh and Kress, 2001; Steinhagen et al., 1976).
as §2, §3
For each field an average of 151+10 cells were tracked real-time. […] FIGS. 1 and 2 show traces from these graphs. […]

[8] = target: P2X5 receptors (Homo sapiens, UniProt Q93086); conditions: cited from earlier work
Sequence of P2X5 receptors (Q93086 whole entry): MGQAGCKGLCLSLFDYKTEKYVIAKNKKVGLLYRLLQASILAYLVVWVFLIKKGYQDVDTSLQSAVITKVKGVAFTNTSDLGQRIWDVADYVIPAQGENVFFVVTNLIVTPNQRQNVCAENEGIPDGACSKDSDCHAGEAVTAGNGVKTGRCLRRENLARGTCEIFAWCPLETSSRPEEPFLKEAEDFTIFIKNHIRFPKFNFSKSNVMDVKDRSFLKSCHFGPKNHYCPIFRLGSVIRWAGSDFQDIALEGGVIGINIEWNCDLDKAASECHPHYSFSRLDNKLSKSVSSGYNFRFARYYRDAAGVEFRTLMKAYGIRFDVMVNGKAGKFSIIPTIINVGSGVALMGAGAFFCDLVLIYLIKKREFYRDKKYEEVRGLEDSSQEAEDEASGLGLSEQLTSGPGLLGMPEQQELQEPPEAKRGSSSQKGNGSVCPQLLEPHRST

[9] = test system: DRG neurons; test: Calcium imaging of cultured DRG neurons: percent of neurons responding to applied metabolites or capsaicin; type: cell-based, mouse; conditions: 200 nM
Excerpt: as §1
Choice and concentrations of metabolites: Because the afferent receptors in muscle have been reported to be on the outside of blood vessels supplying muscle, values obtained for muscle interstitium from experiments using cat, rat, and human for muscle contraction evoked by mild to moderate to extreme exercise were used.
Protons (pH): Values between 7.6 and 6.2 were used spanning the range found in skeletal and cardiac muscle in mammals from above resting values to those found with injury and disease.
Lactate: 1-50 mM lactate was used, a range of values that spans from rest to ischemia in muscles of humans and rats and mice.
ATP: ATP concentrations in muscle interstitium increase from 300 nM at rest to 5 μM with ischemic muscle contraction (Hellsten et al., 1998; Li et al., 2003; Li et al., 2005). These levels were used in the experiments described below. […] To allow for physiological levels of desensitization of possible P2X receptors, freshly prepared ATP at 300 nM was used for at least 30 seconds before any further increases in ATP combined with other metabolites, to establish resting conditions in DRG neurons in these experiments. […] Also used were pH 6.0 and 4.0 without additional increases in metabolites to confirm that the imaging experiments could replicate recent reports using patch-clamp techniques (Leffler et al., 2006).
as §4
Di-I labeling: In some experiments, neurons were identified as innervating muscle by prior muscle labeling with Di-I. Twelve 7-9 day old mice were anesthetized by cooling. […]

[10] = test system: DRG neurons; conditions: patch-clamp, previous reports; cited from earlier work
[11] = target: TRPV1 (Homo sapiens, UniProt Q8NER1); conditions: cited from earlier work
Sequence of TRPV1 (Q8NER1 whole entry, species assumed): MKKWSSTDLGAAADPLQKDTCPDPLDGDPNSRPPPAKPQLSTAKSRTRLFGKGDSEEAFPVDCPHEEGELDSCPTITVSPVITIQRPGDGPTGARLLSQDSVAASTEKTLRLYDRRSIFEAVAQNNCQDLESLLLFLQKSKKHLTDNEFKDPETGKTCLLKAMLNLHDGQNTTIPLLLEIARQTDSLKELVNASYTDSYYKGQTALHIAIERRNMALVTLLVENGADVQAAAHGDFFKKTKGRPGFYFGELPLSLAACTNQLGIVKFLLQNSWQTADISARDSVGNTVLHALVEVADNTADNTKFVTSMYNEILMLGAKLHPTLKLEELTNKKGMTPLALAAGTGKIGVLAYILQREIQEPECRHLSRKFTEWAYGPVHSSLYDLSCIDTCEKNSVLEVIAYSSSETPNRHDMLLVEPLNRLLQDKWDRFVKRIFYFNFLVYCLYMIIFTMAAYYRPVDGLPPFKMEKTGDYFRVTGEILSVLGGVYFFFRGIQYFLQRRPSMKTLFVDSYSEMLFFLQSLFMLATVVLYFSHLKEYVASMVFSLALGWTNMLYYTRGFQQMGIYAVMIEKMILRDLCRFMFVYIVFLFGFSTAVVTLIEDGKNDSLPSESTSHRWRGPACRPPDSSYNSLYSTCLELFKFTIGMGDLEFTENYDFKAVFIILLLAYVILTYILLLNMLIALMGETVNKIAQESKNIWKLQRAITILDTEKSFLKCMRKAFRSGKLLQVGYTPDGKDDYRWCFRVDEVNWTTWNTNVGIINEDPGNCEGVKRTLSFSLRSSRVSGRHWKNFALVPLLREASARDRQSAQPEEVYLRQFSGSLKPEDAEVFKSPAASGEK

N=C(N)NC(=O)c1nc(Cl)c(N)nc1N [Amiloride]
effect on ASIC receptor responses to low pH [1]: antagonizes all ASIC receptor responses to low pH | effect on ASIC3 responses to moderate pH levels [2]: enhanced

Oc1cc2c(cc1O)CN(C(=S)NCCc1ccc(Cl)cc1)CCC2 [Capsazepine]
inhibitory action on pH responses of TRPV1 receptors [3]: little inhibitory action

TNP-ATP
IC50 [4]: 0.31 nM and 0.3 nM | capsaicin and KCl responses in presence of antagonist ([5]; any dose): unaffected | IC50 [6]: 16000 nM | effect on responses to increasing metabolites ([7]; antagonist 10 nM): facilitated responses; also recorded: can increase responses of DRG neurons to increasing metabolites | effect on responses to increasing metabolites ([7]; antagonist 200 μM): blocked nearly all responses to metabolites; also recorded: abolished most responses to increasing metabolites | effect on metabolite responses associated with pH 6.8 and above ([7]; antagonist 1 and 10 μM): had little effect | effect on responses to low metabolites ([7]; antagonist 1 and 10 μM (FIG. 2 legend: 1 μM), metabolites between pH 7.3-7.0): reduced low metabolite responses; also recorded: reduced responses of DRG neurons; also recorded: eliminated most responses to low metabolites | effect on responses to increasing metabolites ([7]; antagonist 200-300 μM, doses effective at all P2X receptors): eliminated nearly all responses to increasing metabolites | effect on responses to metabolites ([7]; antagonist at 10 μM (so in the source), p<0.05): increased responses to metabolites | IC50 [8]: 500 nM

COc1cc(CNC(=O)CCCC/C=C/C(C)C)ccc1O [capsaicin]
percentage of DRG neurons responding with rapid calcium increase ([9]; all DRG neurons): 50.9±4.2% | percentage of DRG neurons responding with rapid calcium increase ([9]; all muscle labeled neurons): 48.8 ± 5.8% | percentage of DRG neurons responding with rapid calcium increase ([9]; metabolite-responding DRG neurons): 71.9 ± 4.2% | percentage of DRG neurons responding with rapid calcium increase ([9]; muscle labeled metabolite responders): 63.4 ± 5.8% | capsaicin responses in DRG neurons, percent [10]: 36% and 20%

Cc1ccc(CC(CNC(=S)NCc2ccc(NS(C)(=O)=O)c(F)c2)COC(=O)C(C)(C)C)cc1C (centres unmarked) [JYL-1433]
responses to KCl application in presence of antagonist ([5]; antagonist 2 μM, 50 mM KCl): remained normal | TRPV1 antagonism [11]: potent full antagonists of TRPV1

— US20110262395A1, “SENSORY RECEPTORS FOR CHRONIC FATIGUE AND PAIN AND USES THEREOF” (UNIVERSITY OF UTAH RESEARCH FOUNDATION, priority 2008, published 2011)
